Reference: PubChem BioAssay AID1259411 (Chemical Carcinogenesis Research Information System (CCRIS), 2018)
Activity calls are given as the source filed them. No rule for the calls is given here.

System: rodent carcinogenicity bioassays, tumor incidence
Assay: CCRIS carcinogenicity studies
How it was run: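 Archive of carcinogenicity, mutagenicity, tumor promotion and tumor inhibition results drawn from journals, NCI reports and other sources, expert-reviewed; covers 1985-2011 and is no longer updated.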

`CCO` was tested, and the carcinogen call (Species: MOUSE, Strain/Sex: B6C3F1/FEMALE (48/GROUP), Route: ORAL, Dose: 2.5% OR 5% IN DRINKING WATER (STUDY DURATION: 2 YRS)) was “inactive; negative; inadequate study to determine carcinogenic activity”, the carcinogen call (Species: MOUSE, Strain/Sex: B6C3F1/MALE (48/GROUP), Route: ORAL, Dose: 2.5% OR 5% IN DRINKING WATER (STUDY DURATION: 2 YRS), Tumor Site: Type of Lesion: LIVER: HEPATOCELLULAR ADENOMA OR CARCINOMA (COMBINED)) was “active; positive; inadequate study to determine carcinogenic activity” and the carcinogen call (Species: RAT, Strain/Sex: SPRAGUE-DAWLEY/FEMALE, Route: ORAL, Dose: 0, 1, 3% IN LIQUID DIET FOR 104 WK (STUDY DURATION: 120 WK), Dose: 0, 1, 3% IN LIQUID DIET FOR 104 WK (STUDY DURATION: 120 WK)) was “inactive; negative”. For the same molecule, the carcinogen call (Species: RAT, Strain/Sex: SPRAGUE-DAWLEY/MALE, Route: ORAL, Dose: 0, 1, 3% IN LIQUID DIET FOR 104 WK (STUDY DURATION: 120 WK), Dose: 0, 1, 3% IN LIQUID DIET FOR 104 WK (STUDY DURATION: 120 WK)) was “inactive; negative”.
With `O=[N+]([O-])c1cccc2c1-c1cccc3c([N+](=O)[O-])ccc-2c13` the carcinogen call (Species: RAT, Strain/Sex: F344/DUCRJ/MALE, Route: PULMONARY IMPLANT, Dose: 0, 0.2 MG AS A SUSPENSION IN EQUAL VOL OF BEESWAX AND TRICAPRYLIN IMPLANTED IN LEFT LUNG (STUDY DURATION: 70 WK), Tumor Site: Type of Lesion: LUNG: TUMOR) was “active; positive”, the carcinogen call (Species: RAT, Strain/Sex: F344/MALE, Route: LUNG IMPLANT, Dose: 0, 200 UG IN BEESWAX/TRICAPRYLIN INTO LOWER LEFT LUNG ONCE (STUDY DURATION: 100 WK), Tumor Site: Type of Lesion: LUNG: SQUAMOUS CELL CARCINOMA) was “active; positive” and the carcinogen call (Species: RAT, Strain/Sex: F344/MALE, Route: PULMONARY IMPLANT, Dose: 0, 200 UG IN 50 µL BEESWAX/TRICAPRYLIN IMPLANTED FOR UP TO 100 WK (STUDY DURATION: 100 WK), Tumor Site: Type of Lesion: LUNG: TUMOR) was “active; positive”.
In the case of `CN[C@@H](C)[C@H](O)c1ccccc1`, the carcinogen call (Species: MOUSE, Strain/Sex: B6C3F1/FEMALE, Route: ORAL, Dose: 0, 125, 250 PPM IN DIET FOR 103 WK, Dose: 0, 125, 250 PPM IN DIET FOR 103 WK) is reported as “inactive; negative”, the carcinogen call (Species: MOUSE, Strain/Sex: B6C3F1/MALE, Route: ORAL, Dose: 0, 125, 250 PPM IN DIET FOR 103 WK, Dose: 0, 125, 250 PPM IN DIET FOR 103 WK) is reported as “inactive; negative” and the carcinogen call (Species: RAT, Strain/Sex: F344/FEMALE, Route: ORAL, Dose: 0, 125, 250 PPM IN DIET FOR 103 WK, Dose: 0, 125, 250 PPM IN DIET FOR 103 WK) is reported as “inactive; negative”. For the same molecule, the carcinogen call (Species: RAT, Strain/Sex: F344/MALE, Route: ORAL, Dose: 0, 125, 250 PPM IN DIET FOR 103 WK, Dose: 0, 125, 250 PPM IN DIET FOR 103 WK) was “inactive; negative”.
In the case of `COc1cc(-c2ccc(N/N=C3/C(=O)c4c(N)cc(S(=O)(=O)O)cc4C=C3S(=O)(=O)O)c(OC)c2)ccc1N/N=C1/C(=O)c2c(N)cc(S(=O)(=O)O)cc2C=C1S(=O)(=O)O`, the carcinogen call (Species: RAT, Strain/Sex: F344/FEMALE, Route: ORAL, Dose: 0, 630, 1250, 2500 PPM IN DRINKING WATER FOR 22 MO (STUDY DURATION: 22 MO), Dose: 0, 630, 1250, 2500 PPM IN DRINKING WATER FOR 22 MO (STUDY DURATION: 22 MO), Tumor Site: Type of Lesion: CLITORAL GLAND: ADENOMA, CARCINOMA, LIVER: NEOPLASTIC NODULE OR HEPATOCELLULAR CARCINOMA, ORAL CAVITY (TONGUE OR PHARYNX, Tumor Site: Type of Lesion: CLITORAL GLAND: ADENOMA, CARCINOMA, LIVER: NEOPLASTIC NODULE OR HEPATOCELLULAR CARCINOMA, ORAL CAVITY (TONGUE OR PHARYNX) is reported as “active; positive” and the carcinogen call (Species: RAT, Strain/Sex: F344/MALE, Route: ORAL, Dose: 0, 630, 1250, 2500 PPM IN DRINKING WATER FOR 22 MO (STUDY DURATION: 22 MO), Dose: 0, 630, 1250, 2500 PPM IN DRINKING WATER FOR 22 MO (STUDY DURATION: 22 MO), Tumor Site: Type of Lesion: LARGE INTESTINE: ADENOMATOUS POLYP OR ADENOCARCINOMA, LIVER: NEOPLASTIC NODULE OR HEPATOCELLULAR CARCINOMA, ORAL CAVITY, Tumor Site: Type of Lesion: LARGE INTESTINE: ADENOMATOUS POLYP OR ADENOCARCINOMA, LIVER: NEOPLASTIC NODULE OR HEPATOCELLULAR CARCINOMA, ORAL CAVITY) is reported as “active; positive”.
`O=C(O)CC(O)(CC(=O)O)C(=O)O` was tested, and the carcinogen call (Species: MOUSE, Strain/Sex: BC3F1/FEMALE, Route: IP INJECTION ONCE, Dose: 100, 500, 1000, 5000 BQ (STUDY DURATION: LIFESPAN), Dose: 100, 500, 1000, 5000 BQ (STUDY DURATION: LIFESPAN), Tumor Site: Type of Lesion: BONE: OSTEOSARCOMAS) was “active; positive”, the carcinogen call (Species: MOUSE, Strain/Sex: C3H/FEMALE, Route: IP INJECTION ONCE, Dose: 100, 500, 1000, 5000 BQ (STUDY DURATION: LIFESPAN), Dose: 100, 500, 1000, 5000 BQ (STUDY DURATION: LIFESPAN), Tumor Site: Type of Lesion: BONE: OSTEOSARCOMAS) was “active; positive” and the carcinogen call (Species: MOUSE, Strain/Sex: C57BL/6/FEMALE, Route: IP INJECTION ONCE, Dose: 100, 500, 1000, 5000 BQ (STUDY DURATION: LIFESPAN), Dose: 100, 500, 1000, 5000 BQ (STUDY DURATION: LIFESPAN), Tumor Site: Type of Lesion: BONE: OSTEOSARCOMAS) was “active; positive”.
With `Cc1[nH]cnc1CSCCN=C(NC#N)N(C)N=O` the carcinogen call (Species: MOUSE, Strain/Sex: B6C3F1/FEMALE, Route: ORAL, Dose: 0, 18.8, 190 MG/D IN DRINKING WATER FOR LIFE ADMINISTERED TO MICE OF MOTHERS EXPOSED TO SAME DOSES THROUGH PREGNANCY AND, Dose: 0, 18.8, 190 MG/D IN DRINKING WATER FOR LIFE ADMINISTERED TO MICE OF MOTHERS EXPOSED TO SAME DOSES THROUGH PREGNANCY AND) was “inactive; negative”, the carcinogen call (Species: MOUSE, Strain/Sex: B6C3F1/MALE, Route: ORAL, Dose: 0, 18.8, 190 MG/D IN DRINKING WATER FOR LIFE ADMINISTERED TO MICE OF MOTHERS EXPOSED TO SAME DOSES THROUGH PREGNANCY AND, Dose: 0, 18.8, 190 MG/D IN DRINKING WATER FOR LIFE ADMINISTERED TO MICE OF MOTHERS EXPOSED TO SAME DOSES THROUGH PREGNANCY AND) was “inactive; negative” and the carcinogen call (Species: MOUSE, Strain/Sex: C57BL/FEMALE, Route: ORAL, Dose: 0, 18.8, 190 MG/D IN DRINKING WATER BEGINNING AT 7-8 WK OF AGE AND CONTINUING FOR STUDY DURATION (STUDY DURATION: LIFE S, Dose: 0, 18.8, 190 MG/D IN DRINKING WATER BEGINNING AT 7-8 WK OF AGE AND CONTINUING FOR STUDY DURATION (STUDY DURATION: LIFE S) was “inactive; negative”. The carcinogen call (Species: RAT, Strain/Sex: F344/FEMALE, Route: ORAL, Dose: 0, 150 MG/L IN DRINKING WATER 5D/WK FOR 106 WK FOR A TOTAL DOSE OF 0, 1600 MG (STUDY DURATION: 131 WK), Dose: 0, 150 MG/L IN DRINKING WATER 5D/WK FOR 106 WK FOR A TOTAL DOSE OF 0, 1600 MG (STUDY DURATION: 131 WK)) was “inactive; negative”, the carcinogen call (Species: RAT, Strain/Sex: F344/MALE, Route: ORAL, Dose: 0, 150 MG/L IN DRINKING WATER 5D/WK FOR 106 WK FOR A TOTAL DOSE OF 0, 1600 MG (STUDY DURATION: 131 WK), Dose: 0, 150 MG/L IN DRINKING WATER 5D/WK FOR 106 WK FOR A TOTAL DOSE OF 0, 1600 MG (STUDY DURATION: 131 WK)) was “inactive; negative” and the carcinogen call (Species: RAT, Strain/Sex: SPRAGUE-DAWLEY/FEMALE, Route: GAVAGE, Dose: 0, 50, 500 MG/KG 2/WK FOR 1 YR (STUDY DURATION: LIFETIME), Dose: 0, 50, 500 MG/KG 2/WK FOR 1 YR (STUDY DURATION: LIFETIME)) was “inactive; negative”. For the same molecule, the carcinogen call (Species: RAT, Strain/Sex: SPRAGUE-DAWLEY/MALE, Route: GAVAGE, Dose: 0, 50, 500 MG/KG 2/WK FOR 1 YR (STUDY DURATION: LIFETIME), Dose: 0, 50, 500 MG/KG 2/WK FOR 1 YR (STUDY DURATION: LIFETIME)) was “inactive; negative”.
